Assay results: US20090131366A1, “Use of Amine-Borane Compounds as Anti-Microbial Agents” (priority 2005, published 2009)
≈ marks a conversion by molar mass, not a printed value. Like-named read-outs stand apart in the source and are kept apart here.

Experiments:
Candida albicans CBS 562 = type: cell-based
Candida albicans 607 = type: cell-based
Candida albicans 615 = type: cell-based
[1] = test system: Aspergillus fumigatus 64026; type: cell-based
Candida glabrata 4210 = type: cell-based; details: Table 1, footnote c
[2] = test system: Candida glabrata 4475 (resistant to azoles); type: cell-based; details: Table 1, footnote c
Candida glabrata 4681 = type: cell-based; details: Table 1, footnote c
Candida glabrata 4787 = type: cell-based
male ICR mice = details: mice that received the MTD
in vivo = details: male, ICR, mouse, iv

Row | MIC (Candida albicans CBS 562; CBS562, Table 1, read-out: MIC) [µM] | MIC (Candida albicans 607; Table 1, read-out: MIC) [µM] | MIC (Candida albicans 615; Table 1, read-out: MIC) [µM] | MIC ([1]; Table 1, read-out: MIC) [µM] | Compound | MIC (Candida albicans CBS 562; Table 1) [µM] | MIC (Candida albicans 607; Table 1) [µM] | MIC (Candida albicans 615; Table 1) [µM] | also measured
1 | 470 (≈ 46.6 µg/mL) | 3620 (≈ 359 µg/mL) | > 3620 | > 3620 | C=CCCN(C)C [K-D, but-3-enyl-dimethyl-amine cyanoborane] |  |  |  | 
2 | 3570 (≈ 361 µg/mL) | > 3570 | > 3570 | > 3570 | CCCCN(C)C [K-G, butyl-dimethyl-amine cyanoborane] |  |  |  | 
3 | 810 (≈ 93.3 µg/mL) | 3240 (≈ 373 µg/mL) | 3240 (≈ 373 µg/mL) | 3240 (≈ 373 µg/mL) | CCCCCN(C)C [K-H, pentyl-dimethyl-amine cyanoborane] |  |  |  | 
4 | 96 (≈ 24.6 µg/mL) | 194 (≈ 49.8 µg/mL) | 46 (≈ 11.8 µg/mL) |  | CN(C)CCCCCCCCCCCCN(C)C [K-M, N,N,N′,N′-tetramethyl-dodecane-1,12-diamine bis-cyanoborane] |  |  |  | MIC (Candida glabrata 4681): 125^c μg per liter; MIC (Candida glabrata 4787; Nakaseomyces glabratus, Table 1, read-out: MIC): 250 µM (≈ 64.1 µg/mL)
5 | 43 (≈ 12.2 µg/mL) | 43 (≈ 12.2 µg/mL) | 43 (≈ 12.2 µg/mL) | 86 (≈ 24.5 µg/mL) | CN(C)CCCCCCCCCCCCCCN(C)C [K-N, N,N,N′,N′-tetramethyl-tetradecane-1,14-diamine bis-cyanoborane] |  |  |  | 
6 | 2210 (≈ 414 µg/mL) | 1100 (≈ 206 µg/mL) | 1100 (≈ 206 µg/mL) |  | CCCCCCC(C)(O)CN(C)C (centres unmarked) [K-O, 1-dimethylamino-2-methyl-octan-2-ol cyanoborane] |  |  |  | 
7 | 492 (≈ 106 µg/mL) | 492 (≈ 106 µg/mL) | 983 (≈ 212 µg/mL) | 492 (≈ 106 µg/mL) | CCCCCCCCCC(O)CN(C)C (centres unmarked) [K-U, 1-dimethylamino-undecan-2-ol cyanoborane] |  |  |  | 
8 | 94 (≈ 12 µg/mL) | 94 (≈ 12 µg/mL) | 94 (≈ 12 µg/mL) | 94 (≈ 12 µg/mL) | C=CCCCCN(C)C [K-V, hex-5-enyl-dimethyl-amine cyanoborane] |  |  |  | 

The next lines start with the compound.

Row | Compound | MIC (Candida albicans CBS 562; CBS562, Table 1, read-out: MIC) [µM] | MIC (Candida albicans 607; Table 1, read-out: MIC) [µM] | MIC (Candida albicans 615; Table 1, read-out: MIC) [µM] | MIC ([1]; Table 1, read-out: MIC) [µM] | MIC (Candida albicans CBS 562; Table 1) [µM] | MIC (Candida albicans 607; Table 1) [µM] | MIC (Candida albicans 615; Table 1) [µM] | also measured
9 | C[C@@H]1[C@H](O)[C@@H](C)/C=C/C=C/C=C/C=C/C=C/C=C/C=C/[C@H](O[C@@H]2O[C@H](C)[C@@H](O)[C@H](N)[C@@H]2O)C[C@@H]2O[C@](O)(C[C@@H](O)C[C@@H](O)[C@H](O)CC[C@@H](O)C[C@@H](O)CC(=O)O[C@H]1C)C[C@H](O)[C@H]2C(=O)O [CAF1, Amphotericin B, reference compound] |  |  |  |  | 0.54 (≈ 0.499 µg/mL) | 0.27 (≈ 0.25 µg/mL) | 0.27 (≈ 0.25 µg/mL) | MIC ([1]; Table 1): 0.5 µM (≈ 0.462 µg/mL)
10 | OC(Cn1cncn1)(Cn1cncn1)c1ccc(F)cc1F [CAF2, Fluconazole, reference compound] | 1.6 (≈ 0.49 µg/mL) | 1.6 (≈ 0.49 µg/mL) | 1.6 (≈ 0.49 µg/mL) | > 208 |  |  |  | 
11 | C[N+](C)(C)[B-](Br)(Br)C#N [K-E, trimethyl-amine cyanodibromoborane] |  |  |  |  | 1970 (≈ 504 µg/mL) | >1970 | >1970 | MIC (Candida glabrata 4210): 500^c μg per liter; MIC [2]: >500^c μg per liter
12 | CCCCCCCCCCCN(C)C [K-I1, dimethyl-undecyl-amine cyanobromoborane] |  |  |  |  |  |  |  | MIC (Candida albicans CBS 562; Candida albicans, CBS562, Table 1 column A, read-out: MIC): 49 µM (≈ 9.77 µg/mL); MIC (Candida albicans 607; Candida albicans, 607, Table 1 column B, read-out: MIC): 49 µM (≈ 9.77 µg/mL); MIC (Candida albicans 615; Candida albicans, 615, Table 1 column C, read-out: MIC): 49 µM (≈ 9.77 µg/mL); MIC ([1]; Aspergillus fumigatus, 64026, Table 1 column I, read-out: MIC): 131 µM (≈ 26.1 µg/mL)
13 | CCCCCCCCCCCN(C)C [K-I2, dimethyl-undecyl-amine cyanodibromoborane] |  |  |  |  | 39 (≈ 7.78 µg/mL) | 39 (≈ 7.78 µg/mL) | 39 (≈ 7.78 µg/mL) | MIC (Candida glabrata 4681): 32^c μg per liter; MIC (Candida glabrata 4787; Table 1): 32 µM (≈ 6.38 µg/mL); MIC ([1]; Table 1): 79 µM (≈ 15.8 µg/mL); clinical signs, body weights and gross necropsy (day 8) (male ICR mice): No changes; MTD (in vivo): 73.1 µmol/kg
14 | CCCCCCCCCCCN(C)C [K-I3, dimethyl-undecyl-amine cyanofluorobromoborane] |  |  |  |  |  |  |  | MIC (Candida albicans CBS 562; Candida albicans, CBS562, 24 h, Table 1, read-out: MIC): 7.8 µM (≈ 1.56 µg/mL)
15 | CCCCCCCCCCCN(C)C [K-I4, dimethyl-undecyl-amine cyanofluoroborane] |  |  |  |  | 64 (≈ 12.8 µg/mL) | 64 (≈ 12.8 µg/mL) | 64 (≈ 12.8 µg/mL) | MIC ([1]; Table 1): 129 µM (≈ 25.7 µg/mL)
16 | C[N+](C)(CCCCCCCCCC[N+](C)(C)[B-](Br)(Br)C#N)[B-](Br)(Br)C#N [K-J2, N,N,N′,N′-tetramethyl-decane-1,10-diamine bis-cyanodibromoborane] |  |  |  |  | 104 (≈ 64.7 µg/mL) | 104 (≈ 64.7 µg/mL) | 104 (≈ 64.7 µg/mL) | MIC (Candida glabrata 4210): 65^c μg per liter; MIC [2]: 65^c μg per liter; MIC (Candida glabrata 4681): 65^c μg per liter; MIC (Candida glabrata 4787; Table 1): 65 µM (≈ 40.4 µg/mL)
17 | N,N,N′,N′-tetramethyl- decane-1,10-diamine bis- carboxyborane [K-J3] |  |  |  |  | 188 | 188 | 907 | MIC (Candida glabrata 4210): 65^c μg per liter; MIC [2]: 31.2^c μg per liter; MIC (Candida glabrata 4681): 65^c μg per liter; MIC (Candida glabrata 4787; Table 1): 65 µM
18 | N,N,N′,N′-tetramethyl- decane-1,10-diamine bis- cyanobromoborane [K-J1] |  |  |  |  | 140 | 140 | 140 | MIC (Candida glabrata 4210): 65^c μg per liter; MIC [2]: 65^c μg per liter; MIC (Candida glabrata 4681): 65^c μg per liter; MIC (Candida glabrata 4787; Table 1): 65 µM
